Measured values: ChEMBL document CHEMBL1158297, “Compounds from Syzygium aromaticum possessing growth inhibitory activity against oral pathogens” (1996)
≈ marks a conversion by molar mass, not a printed value.

Columns and labels:
Assay type in all cases: functional
Actinomyces viscosus = assay: Antimicrobial activity against Actinomyces viscosus W1053 by disk diffusion method
Streptococcus mutans = assay: Antimicrobial activity against Streptococcus mutans Ingbritt by disk diffusion method
Porphyromonas gingivalis = assay: Antimicrobial activity against Porphyromonas gingivalis ATCC 33277 by disk diffusion method
Prevotella intermedia = assay: Antimicrobial activity against Prevotella intermedia by disk diffusion method

MIC (Actinomyces viscosus) [µg/mL] | MIC (Streptococcus mutans) [µg/mL] | MIC (Porphyromonas gingivalis) [µg/mL] | MIC (Prevotella intermedia) [µg/mL] | SMILES
> 2500 | > 2500 | 625 (≈ 1760 µM) | 625 (≈ 1760 µM) | Cc1cc(=O)c2c(O)c([C@@H]3O[C@H](CO)[C@@H](O)[C@H](O)[C@H]3O)c(O)cc2o1 [BIFLORIN]
1250 (≈ 4140 µM) | 1250 (≈ 4140 µM) | 1250 (≈ 4140 µM) | 1250 (≈ 4140 µM) | O=c1oc2c(O)c(O)cc3c(=O)oc4c(O)c(O)cc1c4c23 [ELLAGIC ACID]
1250 (≈ 4370 µM) | 2500 (≈ 8730 µM) | 20 (≈ 69.9 µM) | 20 (≈ 69.9 µM) | O=c1c(O)c(-c2ccc(O)cc2)oc2cc(O)cc(O)c12 [KAEMPFEROL]
1250 (≈ 3930 µM) | 2500 (≈ 7860 µM) | 20 (≈ 62.8 µM) | 20 (≈ 62.8 µM) | O=c1c(O)c(-c2cc(O)c(O)c(O)c2)oc2cc(O)cc(O)c12 [MYRICETIN]
625 (≈ 1370 µM) | 1250 (≈ 2740 µM) | 625 (≈ 1370 µM) | 1250 (≈ 2740 µM) | CC1(C)CC[C@]2(C(=O)O)CC[C@]3(C)C(=CC[C@@H]4[C@@]5(C)CC[C@H](O)C(C)(C)[C@@H]5CC[C@]43C)[C@@H]2C1 [OLEANOLIC_ACID]
1250 (≈ 4160 µM) | 1250 (≈ 4160 µM) | 625 (≈ 2080 µM) | 625 (≈ 2080 µM) | COc1cc(O)c2c(=O)c(O)c(-c3ccc(O)cc3)oc2c1 [RHAMNOCITRIN]
15 | 15 | 2 | 2 | C[n+]1cc2c3c(ccc2c2ccc4cc5c(cc4c21)OCO5)OCO3 [SANGUINARIUM]

SMILES | MIC (Actinomyces viscosus) [µg/mL] | MIC (Streptococcus mutans) [µg/mL] | MIC (Porphyromonas gingivalis) [µg/mL] | MIC (Prevotella intermedia) [µg/mL]
O=C(O)c1cc(O)c(O)c(O)c1 [GALLIC ACID] | 78 (≈ 458 µM) | > 2500 | 156 (≈ 917 µM) | 78 (≈ 458 µM)
